These results are taken from patent publication US20070155838A1, “New Method for Treating Urinary Disorders” (Pfizer Inc, priority 2003, published 2007).

One series deals with bladder. The following applies: compared with oxybutynin; cited from earlier work.
Series [1] has as its system muscarinic receptors of the salivary gland. The following applies: compared with oxybutynin; cited from earlier work.
Series [2] has as its system women with urinary urgency and frequency. Put plainly: randomized, double-blind, placebo-controlled study of tolterodine tartrate (Detrol) tablets 1 mg b.i.d. in women with urinary urgency and frequency. Type of series: in vivo, human. How it is done:
The objective of a study is to evaluate the efficacy and safety of tolterodine tartrate (Detrol®) tablets 2 mg daily versus placebo, in the treatment of urinary urgency and frequency in women, in a randomized, double-blind, placebo-controlled study. The patients received 1 mg tolterodine b.i.d. or placebo, and the dosage regime was one tablet orally, every 8-12 hours, not to exceed 2 tablets daily. The treatment duration was 10 days, after a 5 day pretreatment baseline phase. […] women were included in the study, and were randomized to either the tolterodine or placebo group. All of the subjects were eligible for intent-to-treat (ITT) and safety analysis. 1077 of the randomized subjects were included in the per-protocol analysis.
Females with symptoms urinary urgency, defined as having to stop the current activity and go immediately to the bathroom at least once a day (severe) or able to finish a task but go right to the bathroom at least twice a day (moderate), were included. Frequency was defined as >7 micturitions per 24 hours. The mean age was 48 years. About 83% of the subjects were Caucasian.
Women were asked to complete a diary recording the time of awakening; number and severity of urgency of each micturition, and the number of episodes of incontinence throughout the day as well as, time when tablets taken. The women were directed to begin using the study drug after 5 days (baseline, pretreatment period): 1 tablet every 8-12 hours not to exceed 2 tablets per day.
Thus, this study was designed to evaluate the efficacy and safety of tolterodine 1 mg twice daily, every 8-12 hours, compared to placebo, in women with urinary urgency and frequency. The primary efficacy endpoints were: • 1. Subject perception of improvement in symptoms of urgency after five days of treatment, vs. baseline period, using a three-point categorical scale (Chi Square analysis): • 2. Mean of daily average severity of urgency for urgent episodes (urgency rating score of at least 1) for the 5-day baseline period vs. first five days of treatment.
A five-point categorical scale was used to assess the severity of urgency experienced at each micturition, ranging from 0 (no discomfort) to 4 (very severe).
The secondary efficacy endpoints were: • 1. Average number of urgency episodes per day per subject for the 5-day baseline period vs. first five days of treatment. • 2. Average urgency score (severity of urgency) per subject for micturition episodes accompanied by urgency (a rating score of at least 1) for the 5-day baseline period vs. first day of treatment. • 3. Average number of micturitions per day per subject for the 5-day baseline period vs. first five days of treatment.
Subject perception of improvement in symptoms or urgency after ten days of treatment, vs. baseline period, using a three-point categorical scale (Chi Square analysis).
The sudden urge to urinate accompanied by frequency of urination is a problem for many adults. The symptoms of urgency are most problematic. Therefore, the primary variables examined the subjective perception of improvement in urgency as well as the severity of urgency in subjects treated with tolterodine 1 mg b.i.d. In addition, the frequency of urination was examined as this is a standard assessment tool commonly used to assess the efficacy of drugs for the treatment of overactive bladder syndrome.
Two populations were analyzed for efficacy: the intent-to-treat (ITT) and the per-protocol populations. The former comprised all individuals randomized to treatment. The latter consisted of those individuals who complied with the protocol with regard to eligibility, visit schedule, diary completion and treatment schedule. All randomized subjects who took study medication were included in the safety analyses. Incidence of adverse events was tabulated for all randomized subjects. […]

Where [3] appears, read: all analyzed time points, including day 1, compared to placebo.
Setting [4] is: all analyzed time points, compared to placebo.

Regarding `Cc1ccc(O)c([C@H](CCN(C(C)C)C(C)C)c2ccccc2)c1` [tolterodine, (R)-N,N-diisopropyl-3-(2-hydroxy-5-methylphenyl)-3-phenylpropanamine], the “potency in the bladder relative to oxybutynin” value in the series with bladder is recorded as “equipotent with oxybutynin”. For the same compound, the “affinity for muscarinic receptors of the salivary gland relative to oxybutynin” value in series [1] was “eight times lower”. Moreover, the “subjects with AEs related to nervous system disorders” value in series [2] (1 mg b.i.d. oral, 10 days, placebo 2.0%) turned out to be 3.0%. For the same compound, in series [2] (1 mg b.i.d. oral, 10 days, placebo 4.7%), the “subjects with adverse events considered related to study medication” value stood at 4.8%. Also, in series [2] (1 mg b.i.d. oral, 10 days, placebo 4.9%), the “subjects with AEs related to gastrointestinal disorders” value came to 5.6%. In series [2] (1 mg b.i.d. oral, 10 days, placebo 10.7%), the “subjects reporting adverse events” value is given as 10.8%. For the same compound, the “subjects with AEs related to nervous system disorders (number)” value in series [2] (1 mg b.i.d. oral, 10 days, placebo 13) is reported as 20 subjects. In series [2] (1 mg b.i.d. oral, 10 days, placebo 31), the “subjects with adverse events considered related to study medication (number)” value is “thirty-two”. Further, in series [2] (1 mg b.i.d. oral, 10 days, placebo 32), the “subjects with AEs related to gastrointestinal disorders (number)” value worked out at 37 subjects. In series [2] (1 mg b.i.d. oral, 10 days, placebo 70), the “subjects reporting adverse events (number)” value is “Seventy-one”. In addition, in series [2] (1 mg b.i.d. oral, 10 days, placebo four), the “subjects discontinued from the study due to AEs (number)” value is “Three”. In addition, the “subjects reporting serious AEs (number)” value in series [2] (1 mg b.i.d. oral, 10 days, placebo one) is recorded as “Three”. The “percentage of subjects reporting symptom improvement (subject perception of improvement in symptoms of urgency)” value in series [2] (Day 5, 1 mg b.i.d. oral, compared to placebo) is “statistically significantly higher percentage”. In series [2] (setting [3]), the “decrease in severity of urgency for all micturitions” value is given as “statistically significantly greater decrease” and the “decrease in severity of urgency for urgent episodes” value is on record as “statistically significantly greater decrease”. In series [2] (setting [4]), the “decrease in the number of micturitions/day” value is “statistically significantly greater decrease” and the “reduction in the number of urgent episodes/day” value is “statistically significantly greater reduction”. Further, the “reduction from baseline in number of micturitions/day” value in series [2] (days 1-5, 1 mg b.i.d. oral, N=660, placebo 1.26) came out at 1.59. The “improvement from baseline in severity of urgency for urgent episodes (score, 0-4 scale)” value in series [2] (days 1-5, 1 mg b.i.d. oral, placebo 0.19) worked out at 0.27.
